Experiments:
hPD-1/hPD-L1 = molecular target: T1, hPD-1/hPD-L1 (Homo sapiens, UniProt Q9NZQ7); experiment: PD-1/PD-L1 binding assay kit (CISBIO), HTRF assay of PD-1/PD-L1 protein-protein interaction; conditions: for inhibitory activity of PD-1/PD-L1 protein-protein interaction compared with BMS-202: HTRF, comparison with BMS-202
T1 construct: purchased CISBIO
Experimental: Experimental objective: the activity of the compounds of formula (I) to inhibit the PD-1/PD-L1 interaction was tested by using a PD-1/PD-L1 binding assay kit (CISBIO).
Experimental principle: HTRF (Homogeneous Time-Resolved Fluorescence) is a technique used to detect substances to be tested in pure liquid phase systems. It primarily utilizes energy transfer of two fluorescent groups, which are divided into an energy donor europium (Eu^+) and an energy acceptor. When the donor is externally excited (e.g., a flash lamp or laser), the energy can be resonantly transferred to the acceptor if the donor is close enough to the acceptor, and the acceptor is excited at a specific wavelength. By using the HTRF technology, the assay enables simple and rapid characterization of compounds and antibody blockers in a high-throughput format. By using anti-Tag1 labeled with Eu^+ (Europium) (the HTRF energy donor) and anti-Tag2 labeled with XL665 (the HTRF energy acceptor), the interaction between PD-L1 and PD-1 can be detected. PD-L1 protein and PD-1 protein are labeled with Tag1 and Tag2, respectively, and Eu^+ and XL665 bind to PD-L1 and PD-1, respectively, through antibodies to form complexes. […] This specific signal is directly proportional to the degree of PD1/PD-L1 interaction.
Experimental materials: kit: PD-1/PD-L1 binding assay kits purchased from CISBIO; and 96-well plate: purchased from CISBIO.
Test instrument: Perkin Elmer, model: EnVision.
Test compounds: the compounds in formula (I).
Experimental procedure: PD-1/PD-L1 binding assay kits were used. […] The plates were sealed by using microplate sealers, centrifuging was performed at 1000 rpm for 1 min, and incubation was performed at room temperature for 15 min. The Anti-Tag-Eu^3+ and Anti-tag-XL665 which were diluted with Buffer were then mixed in equal volumes, then 10 µL of the mixed solution was added to each well, the sealed plates were centrifuged at 1000 rpm for 1 min, and incubation was performed at room temperature for 2 h. […] IC50 of the compounds was calculated by using Graphpad.

[1] = Acute toxicity test, single oral gavage; format: in vivo; conditions: both sexes, rat, in vivo, po, SD rats, read-out: maximum tolerated dose (MTD)
Experimental: • Animal species and number: SD rats; 6 rats in each group (half male and half female); Mode of administration: oral gavage; […]; • Administration frequency: administration once.
Side-cage observation on the day of administration (D1): frequency and time of observation: side-cage observation of acute toxicity reactions was performed for 4 h after administration of animals in each group, and detailed clinical observations were performed on animals with apparent abnormal manifestations. Mortality, morbidity, respiration, secretion, feces, and diet, water drinking, etc. were observed, and changes in body weight of rats during administration were recorded. Detailed clinical observations include, but are not limited to, behavioral activities, skin, hair, eyes, ears, noses, abdomens, external genitalia, anuses, limbs, feet, and breathing. The animals in each group were euthanized at the end of the observation period, and all animals were dissected and gross observed.

T1 sequence (Q9NZQ7 19-238 limits assumed): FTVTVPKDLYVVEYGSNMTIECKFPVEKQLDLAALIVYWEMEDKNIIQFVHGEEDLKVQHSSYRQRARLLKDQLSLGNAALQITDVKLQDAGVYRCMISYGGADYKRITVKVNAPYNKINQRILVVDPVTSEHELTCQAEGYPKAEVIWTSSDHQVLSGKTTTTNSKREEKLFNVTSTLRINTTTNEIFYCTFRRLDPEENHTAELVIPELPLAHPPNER

Cc1c(-c2ccc3c(c2)CN(CC(=O)O)C3=O)cccc1-c1ccccc1F [I-A-4, 2-(5-(2'-Fluoro-2-methyl-[1,1'-biphenyl]-3-yl)-1-oxoisoindolin-2-yl)acetic acid]
IC50 (hPD-1/hPD-L1): > 1000 nM

Cc1c(-c2ccc3c(c2)CN(CCC(=O)O)C3=O)cccc1-c1ccccc1F [I-A-5, 3-(5-(2'-Fluoro-2-methyl-[1,1'-biphenyl]-3-yl)-1-oxoisoindolin-2-yl)propanoic acid]
IC50 (hPD-1/hPD-L1): > 1000 nM

Cc1c(-c2ccc3c(c2)CN(C(C)C(=O)O)C3=O)cccc1-c1ccccc1F (stereo not shown) [I-A-6, 2-(5-(2'-Fluoro-2-methyl-[1,1'-biphenyl]-3-yl)-1-oxoisoindolin-2-yl)propanoic acid]
IC50 (hPD-1/hPD-L1): > 1000 nM

Cc1c(-c2ccc3c(c2)CN(CCO)C3=O)cccc1-c1ccccc1F [I-A-7, 5-(2'-Fluoro-2-methyl-[1,1'-biphenyl]-3-yl)-2-(2-hydroxyethyl)isoindo 1-1-one]
IC50 (hPD-1/hPD-L1): 70 to 1000 nM

Cc1c(-c2ccc3c(c2)CN(CC(N)=O)C3=O)cccc1-c1ccccc1F [I-A-8, 2-(5-(2'-Fluoro-2-methyl-[1,1'-biphenyl]-3-yl)-1-oxoisoindolin-2-yl)acetamide]
IC50 (hPD-1/hPD-L1): 70 to 1000 nM

Cc1c(-c2ccc3c(c2)CN(CCO)C3)cccc1-c1ccccc1F [I-A-9, 2-(5-(2'-Fluoro-2-methyl-[1,1'-biphenyl]-3-yl)isoindolin-2-yl)ethan-1-ol]
IC50 (hPD-1/hPD-L1): 11 nM
inhibitory activity of PD-1/PD-L1 protein-protein interaction compared with BMS-202 (hPD-1/hPD-L1): superior to that of the compound BMS-202

Cc1c(-c2ccc3c(n2)CCN(CC(=O)O)C3)cccc1-c1ccccc1F [I-B-2, 2-(2-(2'-Fluoro-2-methyl-[1,1'-biphenyl]-3-yl)-7,8-dihydro-1,6-naphthyridin-6(5H)-yl)acetic acid]
IC50 (hPD-1/hPD-L1): 19 nM
inhibitory activity of PD-1/PD-L1 protein-protein interaction compared with BMS-202 (hPD-1/hPD-L1): superior to that of the compound BMS-202

Cc1c(-c2ccc3c(n2)CCN(CCO)C3)cccc1-c1ccccc1F [I-B-3, 2-(2-(2'-Fluoro-2-methyl-[1,1'-biphenyl]-3-yl)-7,8-dihydro-1,6-naphthyridin-6(5H)-yl)ethan-1-ol]
IC50 (hPD-1/hPD-L1): 70 to 1000 nM

Cc1c(COc2ccc3c(n2)CCN(CC(=O)O)C3)cccc1-c1ccccc1F [I-D-13, 2-(2-((2'-fluoro-2-methyl-[1,1'-biphenyl]-3-yl)methoxy)-7,8-dihydro-1,6-naphthyridin-6(5H)-yl)acetic acid]
IC50 (hPD-1/hPD-L1): 23 nM
inhibitory activity of PD-1/PD-L1 protein-protein interaction compared with BMS-202 (hPD-1/hPD-L1): superior to that of the compound BMS-202

Cc1c(COc2ccc3c(n2)CCN(CCO)C3)cccc1-c1ccccc1F [I-D-14, 2-(2-((2'-fluoro-2-methyl-[1,1'-biphenyl]-3-yl)methoxy)-7,8-dihydro-1,6-naphthyridin-6(5H)-yl)ethan-1-ol]
IC50 (hPD-1/hPD-L1): 15.8 nM
inhibitory activity of PD-1/PD-L1 protein-protein interaction compared with BMS-202 (hPD-1/hPD-L1): superior to that of the compound BMS-202

Cc1ccccc1-c1cccc(COc2ccc3c(n2)CCN(CCO)C3)c1C [I-D-15, 2-(2-((2,2'-dimethyl-[1,1'-biphenyl]-3-yl)methoxy)-7,8-dihydro-1,6-naphthyridin-6(5H)-yl)ethan-1-ol]
IC50 (hPD-1/hPD-L1): 70 to 1000 nM

Cc1c(COc2ccc3c(n2)CCN(CCO)C3)cccc1-c1ccccc1Cl [I-D-16, 2-(2-((2'-chloro-2-methyl-[1,1'-biphenyl]-3-yl)methoxy)-7,8-dihydro-1,6-naphthyridin-6(5H)-yl)ethan-1-ol]
IC50 (hPD-1/hPD-L1): 70 to 1000 nM

Cc1c(COc2ccc3c(n2)CCN(CCO)C3)cccc1-c1ccccc1 [I-D-17, 2-(2-((2-methyl-[1,1'-biphenyl]-3-yl)methoxy)-7,8-dihydro-1,6-naphthyridin-6(5H)-yl)ethan-1-ol]
IC50 (hPD-1/hPD-L1): 70 to 1000 nM

Cc1ccccc1-c1cccc(COc2ccc3c(n2)CCN(CCO)C3)c1Cl [I-D-19, 2-(2-((2-chloro-2'-methyl-[1,1'-biphenyl]-3-yl)methoxy)-7,8-dihydro-1,6-naphthyridin-6(5H)-yl)ethan-1-ol]
IC50 (hPD-1/hPD-L1): 20.1 nM
inhibitory activity of PD-1/PD-L1 protein-protein interaction compared with BMS-202 (hPD-1/hPD-L1): superior to that of the compound BMS-202

OCCN1CCc2nc(OCc3cccc(-c4ccccc4Cl)c3Cl)ccc2C1 [I-D-20, 2-(2-((2,2'-dichloro-[1,1'-biphenyl]-3-yl)methoxy)-7,8-dihydro-1,6-naphthyridin-6(5H)-yl)ethan-1-ol]
IC50 (hPD-1/hPD-L1): 70 to 1000 nM

OCCN1CCc2nc(OCc3cccc(-c4ccccc4)c3Cl)ccc2C1 [I-D-21, 2-(2-((2-chloro-[1,1'-biphenyl]-3-yl)methoxy)-7,8-dihydro-1,6-naphthyridin-6(5H)-yl)ethan-1-ol]
IC50 (hPD-1/hPD-L1): 31.1 nM
inhibitory activity of PD-1/PD-L1 protein-protein interaction compared with BMS-202 (hPD-1/hPD-L1): superior to that of the compound BMS-202

OCCN1CCc2nc(OCc3cccc(-c4ccccc4F)c3F)ccc2C1 [I-D-22, 2-(2-((2,2'-difluoro-[1,1'-biphenyl]-3-yl)methoxy)-7,8-dihydro-1,6-naphthyridin-6(5H)-yl)ethan-1-ol]
IC50 (hPD-1/hPD-L1): 10.5 nM
inhibitory activity of PD-1/PD-L1 protein-protein interaction compared with BMS-202 (hPD-1/hPD-L1): superior to that of the compound BMS-202

Cc1ccccc1-c1cccc(COc2ccc3c(n2)CCN(CCO)C3)c1F [I-D-23, 2-(2-((2-fluoro-2'-methyl-[1,1'-biphenyl]-3-yl)methoxy)-7,8-dihydro-1,6-naphthyridin-6(5H)-yl)ethan-1-ol]
IC50 (hPD-1/hPD-L1): 70 to 1000 nM

OCCN1CCc2nc(OCc3cccc(-c4ccccc4Cl)c3F)ccc2C1 [I-D-24, 2-(2-((2'-chloro-2-fluoro-[1,1'-biphenyl]-3-yl)methoxy)-7,8-dihydro-1,6-naphthyridin-6(5H)-yl)ethan-1-ol]
IC50 (hPD-1/hPD-L1): 70 to 1000 nM
MTD [1]: ≥ 2000 mg/kg

OCCN1CCc2nc(OCc3cccc(-c4ccccc4)c3F)ccc2C1 [I-D-25, 2-(2-((2-fluoro-[1,1'-biphenyl]-3-yl)methoxy)-7,8-dihydro-1,6-naphthyridin-6(5H)-yl)ethan-1-ol]
IC50 (hPD-1/hPD-L1): 70 to 1000 nM

O=CCN1CCc2nc(OCc3cccc(-c4ccccc4F)c3Cl)ccc2C1 [I-D-28, 2-(2-((2-chloro-2'-fluoro-[1,1'-biphenyl]-3-yl)methoxy)-7,8-dihydro-1,6-naphthyridin-6(5H)-yl)acetaldehyde]
IC50 (hPD-1/hPD-L1): 24.2 nM
inhibitory activity of PD-1/PD-L1 protein-protein interaction compared with BMS-202 (hPD-1/hPD-L1): superior to that of the compound BMS-202

O=C(O)CN1CCc2nc(OCc3cccc(-c4ccccc4F)c3)ccc2C1 [I-D-30, 2-(2-((2'-fluoro-[1,1'-biphenyl]-3-yl)methoxy)-7,8-dihydro-1,6-naphthyridin-6(5H)-yl)acetic acid]
IC50 (hPD-1/hPD-L1): 13.4 nM
inhibitory activity of PD-1/PD-L1 protein-protein interaction compared with BMS-202 (hPD-1/hPD-L1): superior to that of the compound BMS-202

Cc1c(COc2ccc3c(n2)N(C)CN(CC(=O)O)C3)cccc1-c1cccc(OCCCN2CC[C@@H](O)C2)c1C [I-E-4, (R)-2-(7-((3'-(3-(3-hydroxypyrrolidin-1-yl)propoxy)-2,2'-dimethyl-[1,1'-biphenyl]-3-yl)methoxy)-1-methyl-1,4-dihydropyrido[2,3-d]pyrimidin-3(2H)-yl)acetic acid]
IC50 (hPD-1/hPD-L1): 58.5 nM
inhibitory activity of PD-1/PD-L1 protein-protein interaction compared with BMS-202 (hPD-1/hPD-L1): superior to that of the compound BMS-202
